Tests used:
[1] = tested on: K562 cells; experiment: MTT assay of cell growth and survival, K562 cells; format: cell-based, human; conditions: FIG. 21; anti-tumor activity
Description: All compounds are tested for purity (HPLC, NMR) and the calculated molecular weight is used to make up a 10 mM stock solution of each compound (in 100% dimethylsulfoxide or 50% dimethylsulfoxide:50% polyethylene glycol 300). Compounds are diluted into cell culture media consisting of RPMI 1640 with 10% fetal bovine serum to a final starting concentration of 10 μM. [Highest final DMSO content=0.1%.]. Tumor cells (20,000 for non-adherent cells; 5,000 for adherent cells) are plated into individual wells of a 96-well culture plate in 0.1 ml of culture media. Diluted compounds are added to individual wells containing pre-plated cells (final volume 0.2 ml) and incubated at 37° C. for 24 to 72 h. Wells receiving vehicle alone acted as a control.
(§1) MTT (viability) assay. MTT reagent (20 μl of 5 mg/ml stock solution, Sigma) is added to the cells and the plates are incubated at 37° C. for another 2 h. Cells are lysed by adding 100 μl of lysis buffer (20% SDS in 50% N,N-dimethylformamide (Sigma) adjusted to pH 4.7 by 80% acetic acid and 1 M HCl such that the final concentration of acetic acid is 2.5% and HCl is 2.5%) into each well and incubated for 6 h. The OD570 of each sample is determined by using a SPECTRA MAX M2 plate reader (Molecular Devices). The OD in control and treated wells is used as an estimate of the effect of compounds on cell growth and survival.
Cell lines. […]

[2] = tested on: Normal dermal human fibroblasts (NDF); experiment: Growth/survival and MTT assay of normal dermal fibroblasts; format: cell-based
Description: Normal dermal human fibroblasts were treated for 1 h at 5 μM Degrasyn before cells were rinsed and cultured in normal growth media for 72 h. Control and treated cells were photographed after 72 h. […] An MTT assay was performed with NDF and A375 cells under these conditions (1 h treatment, 72 h incubation) to estimate the IC50 distinctions between these populations.
as §1
Cell lines. […] A375 melanoma cells were grown and maintained in the same media. […]

[3] = biological target: T1, nucleophosmin (NPM) (Homo sapiens, UniProt P06748); experiment: Affinity recovery of Degrasyn interactive proteins with streptavidin beads; format: binding; conditions: MM-1 or K562 cell lysates
T1 construct: endogenous in cells; host or cells: MM-1 and K562 cell lysates
T1 sequence (P06748 whole entry): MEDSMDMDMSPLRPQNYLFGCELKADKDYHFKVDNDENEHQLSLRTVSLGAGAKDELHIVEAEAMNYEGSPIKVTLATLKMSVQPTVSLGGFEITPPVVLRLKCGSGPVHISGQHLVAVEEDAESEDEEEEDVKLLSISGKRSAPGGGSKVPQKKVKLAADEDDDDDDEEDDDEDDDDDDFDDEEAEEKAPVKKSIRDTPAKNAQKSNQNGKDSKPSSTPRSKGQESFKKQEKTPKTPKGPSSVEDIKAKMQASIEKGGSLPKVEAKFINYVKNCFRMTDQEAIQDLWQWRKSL
Description: Biotinylated-Degrasyn (10 μM) was incubated with lysates from MM-1 cells (10 mg total protein) and interactive proteins were assessed by affinity recovery using Streptavidin-conjugated beads to bind biotinylated-Degrasyn. Free Degrasyn (10 μM) was incubated with biotinylated-Degrasyn in a parallel experiment to assist in identifying specific protein:Degrasyn interactions. Affinity complexes were washed and Streptavidin-Bio-Deg interaction proteins were assessed by disrupting protein complexes with SDS-sample buffer and resolving proteins by SDS-PAGE. The resolved proteins were detected by silver-staining the gel. Protein bands present in the biotinylated-Degrasyn sample that were absent in samples co-incubated with free Degrasyn were identified and cut from the gel. A 38 kDa protein band was prominent in this assessment and was subjected to in gel trypsinization and identification of HPLC resolved tryptic peptides by tandem mass spectroscopy analysis (David Hawke, Department of Molecular Pathology, M.D. Anderson Cancer Center). This analysis identified nucleophosmin (NPM) as a Degrasyn interactive protein.
To further assess the interaction between NPM and Degrasyn, biotinylated-Degrasyn/streptavidin beads were incubated with MM-1 (left) or K562 (right) cell lysates. In parallel, lysates were co-incubated with free Degrasyn to determine the specificity of the interaction with NPM. […]

[4] = tested on: BV-173R cells (T315I BCR-ABL); experiment: MTT assay after 72 h, BV-173R cells; format: cell-based, human; conditions: 72 h of drug incubation
[5] = biological target: T2, w/t BCR-ABL (Homo sapiens, UniProt P00519); experiment: pBCR-ABL and BCR-ABL immunoblot in BV-173 cells; format: cell-based; set-up: dose or concentration left out as unconfirmed; conditions: 1 h
T2 construct: BV-173, a lymphoid CML cell line expressing w/t BCR-ABL; endogenous in cells; host or cells: BV-173; the other entry of the earlier key: BCR (P11274, Breakpoint cluster region protein)
T2 sequence (P00519 with tags, fused parts or gaps): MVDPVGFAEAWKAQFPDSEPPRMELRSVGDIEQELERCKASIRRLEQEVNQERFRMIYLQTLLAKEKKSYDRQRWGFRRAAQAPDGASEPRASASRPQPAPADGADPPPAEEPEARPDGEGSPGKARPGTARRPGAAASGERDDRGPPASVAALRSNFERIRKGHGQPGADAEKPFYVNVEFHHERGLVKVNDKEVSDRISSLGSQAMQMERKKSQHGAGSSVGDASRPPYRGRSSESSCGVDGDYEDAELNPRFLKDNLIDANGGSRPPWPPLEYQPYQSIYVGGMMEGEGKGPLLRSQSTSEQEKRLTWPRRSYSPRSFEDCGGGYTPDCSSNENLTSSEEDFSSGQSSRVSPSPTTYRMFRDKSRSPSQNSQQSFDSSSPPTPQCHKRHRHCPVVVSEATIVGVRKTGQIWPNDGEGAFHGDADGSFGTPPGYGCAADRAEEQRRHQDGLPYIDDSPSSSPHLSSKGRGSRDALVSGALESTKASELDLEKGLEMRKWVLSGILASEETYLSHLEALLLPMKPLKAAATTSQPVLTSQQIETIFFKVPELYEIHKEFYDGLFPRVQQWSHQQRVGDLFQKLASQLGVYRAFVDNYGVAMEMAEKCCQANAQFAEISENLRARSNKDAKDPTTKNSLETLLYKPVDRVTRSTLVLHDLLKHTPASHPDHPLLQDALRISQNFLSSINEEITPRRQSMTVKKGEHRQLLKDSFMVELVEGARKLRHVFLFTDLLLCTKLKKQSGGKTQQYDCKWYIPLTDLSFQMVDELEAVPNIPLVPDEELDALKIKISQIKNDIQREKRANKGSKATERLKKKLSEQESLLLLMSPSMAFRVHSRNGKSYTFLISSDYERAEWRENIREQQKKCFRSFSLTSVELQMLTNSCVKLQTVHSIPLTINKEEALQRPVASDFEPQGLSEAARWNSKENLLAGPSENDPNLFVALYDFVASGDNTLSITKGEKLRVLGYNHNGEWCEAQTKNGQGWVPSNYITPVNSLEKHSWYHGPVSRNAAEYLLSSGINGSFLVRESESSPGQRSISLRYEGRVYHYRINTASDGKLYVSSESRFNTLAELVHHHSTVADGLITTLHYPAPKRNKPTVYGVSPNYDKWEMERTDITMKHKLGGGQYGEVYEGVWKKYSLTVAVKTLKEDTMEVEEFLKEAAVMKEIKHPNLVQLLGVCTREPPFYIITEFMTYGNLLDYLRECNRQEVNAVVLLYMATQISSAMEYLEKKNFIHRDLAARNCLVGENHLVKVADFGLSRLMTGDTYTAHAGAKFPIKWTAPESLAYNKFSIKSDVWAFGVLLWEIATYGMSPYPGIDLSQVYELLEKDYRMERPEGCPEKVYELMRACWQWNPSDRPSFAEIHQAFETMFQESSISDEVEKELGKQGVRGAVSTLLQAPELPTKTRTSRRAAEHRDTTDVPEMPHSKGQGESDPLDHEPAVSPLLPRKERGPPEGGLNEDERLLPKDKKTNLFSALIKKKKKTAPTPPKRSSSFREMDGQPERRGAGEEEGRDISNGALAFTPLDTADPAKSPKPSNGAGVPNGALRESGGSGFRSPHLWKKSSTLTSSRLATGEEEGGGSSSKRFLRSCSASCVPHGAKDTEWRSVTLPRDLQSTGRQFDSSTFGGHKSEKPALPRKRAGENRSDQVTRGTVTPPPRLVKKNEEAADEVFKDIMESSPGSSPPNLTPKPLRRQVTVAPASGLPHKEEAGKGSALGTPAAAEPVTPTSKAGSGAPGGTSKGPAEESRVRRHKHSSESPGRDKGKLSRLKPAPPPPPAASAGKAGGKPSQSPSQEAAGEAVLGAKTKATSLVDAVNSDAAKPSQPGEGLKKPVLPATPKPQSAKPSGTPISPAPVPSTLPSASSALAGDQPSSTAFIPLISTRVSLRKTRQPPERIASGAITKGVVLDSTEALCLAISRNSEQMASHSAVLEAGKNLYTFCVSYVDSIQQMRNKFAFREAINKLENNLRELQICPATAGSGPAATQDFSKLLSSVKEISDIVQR
Description: Actin was probed as protein loading control.
Western Blot analysis. […] Western blotting was performed using specific primary antibodies Peroxidase-conjugated affiniPure anti-Mouse Anti-Rabbit secondary antibodies (Jackson Immunoresearch Laboratories, West Grove, Pa.). The proteins were visualized with ECL Plus reagents (Amersham Biosciences).

SMILES: CCC[C@H](NC(=O)/C(C#N)=C/c1cccc(Br)n1)c1ccccc1 [Degrasyn]
- IC50 [1]: 2.8 µM
- Growth or survival of normal dermal fibroblasts ([2]; 5 μM for 1 h, then 72 h in normal growth media): did not affect the growth or survival of NDFs
- Activity against melanoma tumors relative to normal dermal fibroblast ([2]; A375 vs NDF, MTT, 1 h treatment, 72 h incubation): > 5 fold
- Interaction with NPM [3]: interacts with NPM
- Activity in MTT assay, BV-173R vs BV-173 [4]: equally active against both cell types
- pBCR-ABL and BCR-ABL protein levels, BV-173 [5]: reduced BCR-ABL protein levels in both w/t and mutant BCR-ABL expressing cells

Reference: US20100292229A1, “TRYPHOSTIN-ANALOGS FOR THE TREATMENT OF CELL PROLIFERATIVE DISEASES” (The Board of Regents of the University of Texas System, priority 2006, published 2010)
